The target of data set [1] is T1, SERT (Rattus norvegicus, UniProt P31652). Details: The frontal cortex of rat brain were dissected and homogenized in 30 volumes of buffer; from tissue; host or cells: rat frontal cortex membrane homogenates (male Sprague-Dawley rats, control and PCA-lesioned). Conditions: Kung et al. 1992, cited from earlier work.
Data set [2] has as its target T2, dopamine transporter (DAT) expressed in LLC-PK1 cells (Rattus norvegicus, UniProt P23977).
T2 construct: host or cells: LLC-PK1 (LLC-DAT)
Briefly: [125I]IPT competition binding, LLC-DAT membrane homogenates. The text has this:
(§1) Three monoamine transporters expressed respectively in a common parental cell line, LLC-PK, (referred to as LLC-DAT. LLC-NET and LLC-SERT) were kindly provided by Dr. G. Rudnick of Yale University.

Data set [3] deals with T1, SERT. The data set is described as follows: Competition binding with [125I]IDAM in rat frontal cortical homogenate. Details: The frontal cortex of rat brain were dissected and homogenized in 30 volumes of buffer; from tissue; host or cells: rat frontal cortex membrane homogenates (male Sprague-Dawley rats, control and PCA-lesioned). On the procedure: The homogenates were centrifuged at 20,000 g for 20 min. The resulting pellets were then re-suspended and recentrifuged. The final pellets were suspended in the same buffer and used for in vitro binding assays.
Various inhibitors were serially diluted with the buffer containing 0.1% BSA to overcome the stickiness and loss due to dilution. […] Incubation was carried out for 60 min at room temperature and then terminated by separation of bound from free radioligand by filtration through glass fiber filters (Schleicher & Schuell No. 25, Keene, N.H.) presoaked with 1% polyethylenimine. The filters were then washed three times with 3 ml of ice-cold […] Tris buffer and counted in a gamma counter (Packard 5000) with 70% efficiency. To study the effect of […], the homogenates were prepared in a sodium-free 50 mM Tris-HCl/5 mM KCl buffer.

The target in data set [4] is T1, SERT. Briefly: In vivo competitive binding: drug pretreatment before [125I]IDAM. To be noted: 2 mg/kg i.v. 5 min prior to tracer; 60 min after tracer. On the procedure: Experiments were performed using groups of 3-4 animals per study. […] The reduction of regional specific binding in the drug-pretreated rats was compared to the control animals with saline pretreatment.

Data set [5] in a line: Partition coefficient octanol/buffer. To be noted: 1-octanol/pH 7 buffer. Type of data set: physicochemical.
Data set [6] addresses T3, serotonin transporter (SERT) expressed in LLC-PK1 cells (Rattus norvegicus, UniProt P31652).
T3 construct: host or cells: LLC-PK1 (LLC-SERT)
Briefly: [125I]IPT competition binding, LLC-SERT membrane homogenates.
Source text: as §1

The target of data set [7] is T4, norepinephrine transporter (NET) expressed in LLC-PK1 cells (Homo sapiens, UniProt P23975).
T4 construct: host or cells: LLC-PK1 (LLC-NET)
T4 sequence (P23975 whole entry): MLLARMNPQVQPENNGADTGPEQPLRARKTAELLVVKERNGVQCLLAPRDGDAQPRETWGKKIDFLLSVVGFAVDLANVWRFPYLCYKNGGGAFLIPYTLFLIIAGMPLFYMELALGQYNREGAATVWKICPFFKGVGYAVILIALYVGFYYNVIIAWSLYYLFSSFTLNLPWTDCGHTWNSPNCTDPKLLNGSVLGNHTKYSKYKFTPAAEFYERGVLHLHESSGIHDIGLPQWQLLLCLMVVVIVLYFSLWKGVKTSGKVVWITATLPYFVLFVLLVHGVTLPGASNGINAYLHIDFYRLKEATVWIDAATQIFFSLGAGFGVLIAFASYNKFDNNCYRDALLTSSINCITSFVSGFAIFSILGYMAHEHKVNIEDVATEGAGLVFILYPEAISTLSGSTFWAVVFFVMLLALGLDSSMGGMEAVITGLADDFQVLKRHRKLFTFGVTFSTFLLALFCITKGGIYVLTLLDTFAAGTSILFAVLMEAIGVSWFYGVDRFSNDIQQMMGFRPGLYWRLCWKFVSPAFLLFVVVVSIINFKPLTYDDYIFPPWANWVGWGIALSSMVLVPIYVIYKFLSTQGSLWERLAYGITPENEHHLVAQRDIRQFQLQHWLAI
The data set is described as follows: [125I]IPT competition binding, LLC-NET membrane homogenates.
Source text: as §1

The nature of data set [8]: Biodistribution in rats after i.v. injection of radioactive tracer. Type of data set: in vivo, rat. On the procedure:
Three or four rats per group were used for each biodistribution study. While under ether anesthesia, 0.2 ml of a saline solution containing 10 μCi of radioactive tracer was injected into the femoral vein. The rats were sacrificed at the time indicated by cardiac excision while under ether anesthesia. Organs of interest were removed and weighed, and the radioactivity was counted using a Packard automatic gamma counter (Model 5000). The percent dose per organ was calculated by a comparison of the tissue counts to counts of 1% of the initial dose (100 times diluted aliquots of the injected material) measured at the same time.
Regional brain distribution in rats was measured after an i.v. injection of the radioactive tracer. Samples from different brain regions [cortex (CX), striatum (ST), hippocampus (HP), cerebellum (CB) and hypothalamus (HY)] were dissected, weighed and counted. The percentage dose/g of each sample was calculated by comparing sample counts with the counts of the diluted initial dose described above. The ratio of specific binding (SB) in each region was obtained by dividing the difference of each region from the cerebellum (percentage dose/g) with that of the cerebellum [(region-CB)/CB].

The mark [9] stands for this setting: [125I]IPT ligand, LLC-PK1 membranes, read-out: Inhibition constant (Ki) DAT.
Where [10] appears, read: [125I]IPT ligand, LLC-PK1 membranes, read-out: Inhibition constant (Ki) NET.
Setting [11] is: [125I]IPT ligand, LLC-PK1 membranes, read-out: Inhibition constant (Ki) SERT.
Setting [12] is: 0.2 nM [125I]IDAM, rat frontal cortical homogenate, read-out: Ki for inhibition of [125I]IDAM binding.

Like-named read-outs stand apart in the source and are kept apart here.

T3 sequence (P31652 whole entry): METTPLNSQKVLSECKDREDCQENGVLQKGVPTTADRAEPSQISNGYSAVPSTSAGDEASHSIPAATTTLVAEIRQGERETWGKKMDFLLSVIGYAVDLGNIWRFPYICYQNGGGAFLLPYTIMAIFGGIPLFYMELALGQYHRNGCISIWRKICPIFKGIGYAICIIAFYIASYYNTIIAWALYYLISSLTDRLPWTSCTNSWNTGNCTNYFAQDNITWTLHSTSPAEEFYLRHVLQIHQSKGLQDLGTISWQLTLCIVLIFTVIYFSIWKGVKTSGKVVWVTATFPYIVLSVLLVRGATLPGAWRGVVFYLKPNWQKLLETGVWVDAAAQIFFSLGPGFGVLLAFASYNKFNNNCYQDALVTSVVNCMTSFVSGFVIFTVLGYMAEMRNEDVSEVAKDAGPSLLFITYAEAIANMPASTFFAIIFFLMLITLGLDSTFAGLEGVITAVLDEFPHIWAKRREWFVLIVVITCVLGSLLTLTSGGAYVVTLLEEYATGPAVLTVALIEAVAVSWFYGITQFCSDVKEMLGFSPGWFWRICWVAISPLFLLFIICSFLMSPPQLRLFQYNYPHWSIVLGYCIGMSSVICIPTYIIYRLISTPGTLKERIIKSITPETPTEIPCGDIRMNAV
T1 sequence (P31652 whole entry): as above
T2 sequence (P23977 whole entry): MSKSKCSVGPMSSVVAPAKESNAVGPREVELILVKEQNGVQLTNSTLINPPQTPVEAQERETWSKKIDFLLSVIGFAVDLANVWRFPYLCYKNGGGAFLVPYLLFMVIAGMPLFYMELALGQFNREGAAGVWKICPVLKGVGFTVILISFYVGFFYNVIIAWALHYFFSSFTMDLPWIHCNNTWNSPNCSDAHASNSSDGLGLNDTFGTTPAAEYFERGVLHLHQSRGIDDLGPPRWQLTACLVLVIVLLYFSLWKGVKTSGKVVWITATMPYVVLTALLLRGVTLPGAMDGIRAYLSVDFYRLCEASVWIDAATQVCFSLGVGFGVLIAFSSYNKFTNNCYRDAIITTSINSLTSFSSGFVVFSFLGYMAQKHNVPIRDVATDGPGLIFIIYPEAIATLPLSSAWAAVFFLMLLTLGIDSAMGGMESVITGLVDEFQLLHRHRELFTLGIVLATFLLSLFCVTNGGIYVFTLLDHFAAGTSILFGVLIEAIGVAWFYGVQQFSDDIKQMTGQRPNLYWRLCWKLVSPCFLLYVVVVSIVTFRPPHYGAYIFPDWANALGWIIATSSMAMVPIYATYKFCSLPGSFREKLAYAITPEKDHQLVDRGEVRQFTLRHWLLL

On to `CNCCC(Oc1ccc(I)cc1C)c1ccccc1` (stereo not shown) [4-I-tomoxetine], for which the Kd on SERT [1] is 0.04 nM. In addition, on SERT [1] (at Kd value), the nonspecific binding was greater than 25%.

For the compound `CN(C)Cc1ccccc1Sc1ccc(I)cc1CO` [IDAM, 5-iodo-2-[[2-2[(dimethylamino)methyl]phenyl]thio]benzyl alcohol], the Ki in data set [2] (setting [9]) is greater than 10000 nM; at SERT [3] it was 0.08 nM; in data set [6], less than 0.1 nM. The “effect of pretreatment on specific binding of [125I]IDAM in rat brain regions” value (“effect of pretreatment” below) on SERT [4] is listed as “dramatically reduced”. Also, the partition coefficient in data set [5] is reported as 473. In data set [6] (SERT versus DAT and NET), the “selectivity for SERT” value is listed as “more than 1,000 fold”.

Consider `CC(=O)OCc1cc(Br)ccc1Sc1ccccc1CN(C)C` [K68], for which the Ki in data set [2] (setting [9]) was 20.4 ± 1.55 nM; in data set [7] (setting [10]) it was 420 ± 62.5 nM; in data set [6] (setting [11]) it was 2.42 ± 0.06 nM.

For the compound `CN(C)Cc1ccccc1Sc1ccc(Br)cn1` [K102], the Ki in data set [6] (setting [11]) is greater than 1000 nM.

With `COCc1cc(I)ccc1Sc1ccccc1CN(C)C` [K104], the Ki in data set [2] was 11000 ± 200 nM; in data set [7], 155 ± 18.7 nM; in data set [6], 0.02 nM.

With `CN(C)Cc1ccccc1Sc1ccccc1N` [K109], the Ki was found to be 1700 ± 600 nM in data set [2] (setting [9]) and 0.038 ± 0.01 nM in data set [6] (setting [11]).

In the case of `CN(C)Cc1ccccc1Sc1ccc(Br)cc1[N+](=O)[O-]` [K110], the Ki turned out to be 14700 ± 2200 nM in data set [2] (setting [9]) and 1.9 nM in data set [6] (setting [11]).

Consider `CCOCc1cc(I)ccc1Sc1ccccc1CN(C)C` [K119], for which the figures for the Ki in data set [2] (setting [9]) and in data set [6] (setting [11]) were 11100 ± 1100 nM and 0.234 nM, respectively.

As to `CCCOCc1cc(I)ccc1Sc1ccccc1CN(C)C` [K120], the Ki in data set [2] (setting [9]) amounted to 9300 ± 200 nM; in data set [7] (setting [10]) it was 382 ± 46 nM; in data set [6] (setting [11]) it was 0.33 ± 0.06 nM.

Take `CN(C)Cc1ccccc1Sc1ccc(Br)cc1NO` [K99025]: the figures for the Ki in data set [7] (setting [10]) and in data set [6] (setting [11]) were 165 ± 9 nM and roughly 0.075 nM, respectively.

As to `CN(C)Cc1ccccc1Sc1ccc(Br)cc1N` [K99026], the figures for the inhibition constant Ki in data set [7] and in data set [6] (setting [11]) were 214 ± 68 nM and roughly 0.022 nM, respectively.

`CN(C)Cc1ccccc1Sc1ccc(I)cc1N` [K99028]: the values for the Ki in data set [7] (setting [10]) and in data set [6] were 699 ± 80 nM and roughly 0.013 nM, respectively.

With `CNCc1ccccc1Sc1ccc(I)cc1CO` [K99032], in data set [6] (setting [11]), the Ki was less than 0.01 nM.

For the compound `CN(C)Cc1ccccc1Sc1ccc(Cl)cc1CO` [K99033], the Ki in data set [6] is less than 0.01 nM.

On to `CN(C)Cc1cc(N)ccc1Cc1ccccc1` [K99034], for which, in data set [6] (setting [11]), the Ki worked out at 35 ± 2.5 nM.

Take `Cc1ccccc1Nc1ccc(N)cc1CN(C)C` [K99036]: in data set [6] (setting [11]), the Ki was 139 ± 15 nM.

For the compound `Cc1ccccc1Nc1ccc(I)cc1CN(C)C` [K99037], in data set [6] (setting [11]), the Ki was determined as 27.3 ± 6.9 nM.

In the case of `CN(C)Cc1ccccc1Oc1ccc(I)cc1` [K99039], the Ki in data set [6] (setting [11]) was less than 0.01 nM.

For `CN(C)Cc1ccccc1Oc1ccc(I)cc1CO` [ODAM, 5-Iodo-2-(2-dimethylaminomethylphenoxy)-benzyl alcohol], the Ki was determined as 3900 ± 700 nM in data set [2] (setting [9]), 2.88 ± 0.88 nM at SERT [3] (setting [12]) and 0.12 nM in data set [6] (setting [11]). For the same compound, the “% dose/organ BRAIN” value was 2.03 % dose/organ in data set [8] (2 min); 1.49 % dose/organ in data set [8] (30 min); 0.79 % dose/organ in data set [8] (60 min); 0.27 % dose/organ in data set [8] (120 min); 0.07 % dose/organ in data set [8] (240 min). The “Regional brain distribution (ratio/CB) HYPOTHALAMUS” value in data set [8] (2 min) worked out at 1.22; in data set [8] (30 min), 1.86; in data set [8] (60 min), 1.86; in data set [8] (120 min), 1.63; in data set [8] (240 min), 1.34.

Turning to `CCN1CCC[C@H]1CNC(=O)c1c(O)c(Cl)cc(Cl)c1OC` [Raclopride, raclopride], the Ki on SERT [3] (setting [12]) came to 669 nM. At SERT [4], the “effect of pretreatment” value is recorded as “no effect”.

In the case of `CN(C)Cc1ccccc1Oc1ccc([125I])cc1CO` [[^125I]ODAM, 5-[123-Iodo or 125-iodo]-2-(2-dimethylaminomethylphenoxy)-benzyl alcohol], in data set [8] (2 min), the “% dose/organ BLOOD” value amounted to 3.009 ± 0.212 % dose/organ, the “% dose/organ BRAIN” value is on record as 2.033 ± 0.087 % dose/organ, the “% dose/organ THYROID” value was found to be 0.080 ± 0.019 % dose/organ and the “Regional brain distribution (ratio/CB) CEREBELLUM” value amounted to 1.000. In data set [8] (2 min), the “Regional brain distribution (ratio/CB) CORTEX” value is 1.436, the “Regional brain distribution (ratio/CB) HIPPOCAMPUS” value is recorded as 0.983, the “Regional brain distribution (ratio/CB) HYPOTHALAMUS” value amounted to 1.221 and the “Regional brain distribution (ratio/CB) STRIATUM” value came out at 0.906. Besides, in data set [8] (30 min), the “% dose/organ BLOOD” value was found to be 3.517 ± 0.504 % dose/organ, the “% dose/organ BRAIN” value is 1.489 ± 0.146 % dose/organ, the “% dose/organ THYROID” value was 0.039 ± 0.006 % dose/organ and the “Regional brain distribution (ratio/CB) CEREBELLUM” value worked out at 1.000. Further, in data set [8] (30 min), the “Regional brain distribution (ratio/CB) CORTEX” value is reported as 1.771, the “Regional brain distribution (ratio/CB) HIPPOCAMPUS” value was 1.563, the “Regional brain distribution (ratio/CB) HYPOTHALAMUS” value came out at 1.860 and the “Regional brain distribution (ratio/CB) STRIATUM” value is given as 1.590. In data set [8] (60 min), the “% dose/organ BLOOD” value was determined as 3.296 ± 0.373 % dose/organ, the “% dose/organ BRAIN” value is listed as 0.785 ± 0.231 % dose/organ, the “% dose/organ THYROID” value was determined as 0.028 ± 0.005 % dose/organ and the “Regional brain distribution (ratio/CB) CEREBELLUM” value is reported as 1.000. Moreover, in data set [8] (60 min), the “Regional brain distribution (ratio/CB) CORTEX” value was 1.690, the “Regional brain distribution (ratio/CB) HIPPOCAMPUS” value is on record as 1.791, the “Regional brain distribution (ratio/CB) HYPOTHALAMUS” value came to 1.858 and the “Regional brain distribution (ratio/CB) STRIATUM” value came out at 1.605. In addition, in data set [8] (120 min), the “% dose/organ BLOOD” value is 1.868 ± 0.186 % dose/organ, the “% dose/organ BRAIN” value was determined as 0.267 ± 0.066 % dose/organ, the “% dose/organ THYROID” value stood at 0.034 ± 0.006 % dose/organ and the “Regional brain distribution (ratio/CB) CEREBELLUM” value is listed as 1.000. In data set [8] (120 min), the “Regional brain distribution (ratio/CB) CORTEX” value came out at 1.672, the “Regional brain distribution (ratio/CB) HIPPOCAMPUS” value is 1.846, the “Regional brain distribution (ratio/CB) HYPOTHALAMUS” value stood at 1.630 and the “Regional brain distribution (ratio/CB) STRIATUM” value stood at 1.617. Further, in data set [8] (240 min), the “% dose/organ BLOOD” value is 0.976 ± 0.073 % dose/organ, the “% dose/organ BRAIN” value is listed as 0.065 ± 0.017 % dose/organ, the “% dose/organ THYROID” value is 0.041 ± 0.038 % dose/organ and the “Regional brain distribution (ratio/CB) CEREBELLUM” value is 1.000. In data set [8] (240 min), the “Regional brain distribution (ratio/CB) CORTEX” value came out at 1.322, the “Regional brain distribution (ratio/CB) HIPPOCAMPUS” value worked out at 1.648, the “Regional brain distribution (ratio/CB) HYPOTHALAMUS” value is reported as 1.343 and the “Regional brain distribution (ratio/CB) STRIATUM” value is listed as 1.539.

Take `CN(C)Cc1ccccc1Sc1ccc(Br)cc1CO` [brominated derivative, 5-bromo-2-[[2-2[(dimethylamino)methyl]phenyl]thio]benzyl alcohol]: the Ki in data set [2] (setting [9]) was greater than 10000 nM; in data set [7] (setting [10]) it was 35.4 nM; in data set [6] (setting [11]), less than 0.1 nM.

Consider `COC(=O)C(c1ccccc1)C1CCCCN1` (stereo not shown) [methylphenidate], for which, on SERT [3], the Ki was greater than 1000 nM. Besides, at SERT [3] (0.2 nM [125I]IDAM, rat frontal cortical homogenate), the “Ki for inhibition of [125I]IDAM binding” value is “much less potent”. Besides, the “effect of pretreatment” value at SERT [4] was “no effect”.

(Values after patent publication US6921840B1 (The Trustees of the University of Pennsylvania, priority 1999, dated 2005).)
